In ChEMBL document CHEMBL1201862, “PubChem BioAssay data set” (2004):
Activity calls are given as the source filed them. Rule as the data show it: actives have a measured EC50 and inactives only a lower limit.

Tested on: not listed separately
Assay: inhibitors of intracellular T. cruzi replication, confirmation, NIH3T3 host cells, beta-gal luminescence (AID 2044);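 also: intracellular parasites grown in NIH/3T3 mouse fibroblasts as host cells; luminescent beta-galactosidase reporter signal from transgenic T. cruzi replicating inside host cells; inhibitors lower the luminescence signal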
Assay type: functional, cell-based

SMILES | EC50
COc1ccc2[nH]c(CN3CCN(CCC(C)C)C(CCO)C3)c(C)c2c1 (stereo unspecified) | 0.648 µM (active)
COc1ccc(C(=O)NC(=S)N2CCCCC2c2cccnc2)cc1OC (stereo unspecified) | 1.32 µM (active)
CN(C)CCN(C(=O)c1ccc(S(=O)(=O)N(C)c2ccccc2)cc1)c1nc2cc3c(cc2s1)OCO3 | 0.145 µM (active)
COc1ccc(OC)c(N/C(C)=C/C(=O)c2ccccc2)c1 | 2.49 µM (active)
Cc1ccc(C(=O)NC(=S)N(C)C2CCCCC2)cc1Br | 2.07 µM (active)
Cc1ccc(C(=N)NOC(=O)N2CCOCC2)cc1 | 1.95 µM (active)
Cc1cc(Cl)ccc1OCc1nc(-c2ccncc2)no1 | 2.43 µM (active)
Clc1ccc(C2=NCCN2)cc1 | 0.24 µM (active)
COc1ccc(-c2c[n+](-c3ccccc3)c3n2CCS3)cc1 | 0.688 µM (active)

Biological target: T1, Streptokinase A (Streptococcus pyogenes serotype M1, UniProt P10520)
T1 sequence (P10520 whole entry): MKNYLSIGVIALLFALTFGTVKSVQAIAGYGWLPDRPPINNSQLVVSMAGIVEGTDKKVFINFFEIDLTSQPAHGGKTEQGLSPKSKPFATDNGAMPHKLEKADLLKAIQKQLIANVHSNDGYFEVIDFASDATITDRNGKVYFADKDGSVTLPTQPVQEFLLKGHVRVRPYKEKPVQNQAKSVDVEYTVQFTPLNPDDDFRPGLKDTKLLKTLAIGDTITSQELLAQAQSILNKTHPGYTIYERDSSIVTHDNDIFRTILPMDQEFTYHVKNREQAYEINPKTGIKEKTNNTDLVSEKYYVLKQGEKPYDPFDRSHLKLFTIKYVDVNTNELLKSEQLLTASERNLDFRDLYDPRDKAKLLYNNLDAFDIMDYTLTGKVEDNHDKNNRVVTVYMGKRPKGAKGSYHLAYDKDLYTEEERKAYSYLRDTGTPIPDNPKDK
Assay: S. pyogenes streptokinase expression inhibitors, potency, dose response, plasminogen activation absorbance, OD405 (AID 1914);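 also: secreted streptokinase activity via plasminogen activation per viability signal from cell pellet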
Assay type: functional, Streptococcus pyogenes M1 GAS

SMILES | EC50
FC(F)(F)c1cccc(CNC2c3ccccc3-c3ccccc32)c1 | 19 µM (active)
CC12CC3(C)CC(C)(C1)CC(C(=O)NC1=NCCS1)(C2)C3 | > 150 µM (not active)
CCOC(=O)c1csc(N/N=C2\CCCc3ccccc32)n1 | > 150 µM (not active)
OC1(C#Cc2c(-c3ccsc3)oc3ccc(N4CCOCC4)cc23)CCCCC1 | 54.6 µM (inconclusive)
Cc1cccc(CN2CCCC(C(=O)c3ccc4c5c(cccc35)CC4)C2)n1 (stereo unspecified) | > 150 µM (not active)
c1ccc2c(c1)nc(Nc1ccc(N3CCCCC3)cc1)c1nncn12 | > 150 µM (not active)
CCOC(=O)CC(NC(=O)CCS(=O)(=O)c1ccc2c(c1)n(C)c(=O)c(=O)n2C)c1ccc(C)cc1 (stereo unspecified) | > 150 µM (not active)
Cc1cc(C)c(COc2ccc(/C=N/n3c(C)nnc3S)cc2)c(C)c1 | 12 µM (active)
CC(=O)Nc1ccc(NC(=O)CSc2nnc(NC(=O)c3ccc(Br)o3)s2)cc1 | > 150 µM (not active)
COCCn1c(-c2cc(OC)c(OC)c(OC)c2)nc2oc3cc(OC)ccc3c(=O)c2c1=O | > 150 µM (not active)
Cc1cccc(C)c1NC(=O)CN(C)CC(=O)Nc1sc2c(c1C(N)=O)CCC2 | > 150 µM (not active)
Cc1nc2c(C(=O)NCc3ccc4c(c3)OCO4)cnn2c(C)c1Cc1ccc(F)cc1Cl | 42.9 µM (active)
c1ccc(-c2nnc(-c3c[nH]c4ccccc34)nc2-c2ccccc2)cc1 | 20.1 µM (active)
COc1ccc(C#Cc2ccc3c(=O)c4ccccc4n(C)c3c2)cc1 | 110 µM (active)
Cc1cc(C)cc(C(=O)NC2C(=O)N3C(C(=O)O)=C(CSc4nnc(C)s4)CSC23)c1 (stereo unspecified) | > 150 µM (not active)

Tested on: Streptococcus
Assay: Group A Streptococcus viability loss, dose response, counter-screen for streptokinase expression inhibitor project, luminescence, BacTiterGlo (AID 1915);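 also: potency for reduction of bacterial viability or growth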
Assay type: functional, organism-based

SMILES | EC50
FC(F)(F)c1cccc(CNC2c3ccccc3-c3ccccc32)c1 | > 150 µM (not active)
CC12CC3(C)CC(C)(C1)CC(C(=O)NC1=NCCS1)(C2)C3 | > 150 µM (not active)
CCOC(=O)c1csc(N/N=C2\CCCc3ccccc32)n1 | 16 µM (active)
OC1(C#Cc2c(-c3ccsc3)oc3ccc(N4CCOCC4)cc23)CCCCC1 | 15.3 µM (active)
Cc1cccc(CN2CCCC(C(=O)c3ccc4c5c(cccc35)CC4)C2)n1 (stereo unspecified) | > 150 µM (not active)
Cc1ccc(C(=O)NC(=S)N(C)C2CCCCC2)cc1Br | 6.98 µM (active)
c1ccc2c(c1)nc(Nc1ccc(N3CCCCC3)cc1)c1nncn12 | 91.3 µM (active)
CCOC(=O)CC(NC(=O)CCS(=O)(=O)c1ccc2c(c1)n(C)c(=O)c(=O)n2C)c1ccc(C)cc1 (stereo unspecified) | > 150 µM (not active)
Cc1cc(C)c(COc2ccc(/C=N/n3c(C)nnc3S)cc2)c(C)c1 | 12.2 µM (active)
CC(=O)Nc1ccc(NC(=O)CSc2nnc(NC(=O)c3ccc(Br)o3)s2)cc1 | 44 µM (active)
COCCn1c(-c2cc(OC)c(OC)c(OC)c2)nc2oc3cc(OC)ccc3c(=O)c2c1=O | > 150 µM (not active)
Cc1cccc(C)c1NC(=O)CN(C)CC(=O)Nc1sc2c(c1C(N)=O)CCC2 | > 150 µM (not active)
Cc1nc2c(C(=O)NCc3ccc4c(c3)OCO4)cnn2c(C)c1Cc1ccc(F)cc1Cl | > 150 µM (not active)
c1ccc(-c2nnc(-c3c[nH]c4ccccc34)nc2-c2ccccc2)cc1 | 68.7 µM (active)
COc1ccc(C#Cc2ccc3c(=O)c4ccccc4n(C)c3c2)cc1 | 102 µM (active)
Cc1cc(C)cc(C(=O)NC2C(=O)N3C(C(=O)O)=C(CSc4nnc(C)s4)CSC23)c1 (stereo unspecified) | 1.62 µM (active)

Tested on: Streptococcus sp. 'group A'
Assay: growth inhibition of control SK(-) GAS strain, dose response, counter-screen for streptokinase expression inhibitor project, luminescence, kanamycin, BacTiterGlo, confirmation (AID 1900)
Assay type: functional, organism-based

SMILES | EC50
FC(F)(F)c1cccc(CNC2c3ccccc3-c3ccccc32)c1 | 22.8 µM (active)
CC12CC3(C)CC(C)(C1)CC(C(=O)NC1=NCCS1)(C2)C3 | 3.33 µM (active)
CCOC(=O)c1csc(N/N=C2\CCCc3ccccc32)n1 | 9.3 µM (active)
OC1(C#Cc2c(-c3ccsc3)oc3ccc(N4CCOCC4)cc23)CCCCC1 | 6.92 µM (active)
Cc1cccc(CN2CCCC(C(=O)c3ccc4c5c(cccc35)CC4)C2)n1 (stereo unspecified) | 15 µM (active)
Cc1ccc(C(=O)NC(=S)N(C)C2CCCCC2)cc1Br | 2.54 µM (active)
c1ccc2c(c1)nc(Nc1ccc(N3CCCCC3)cc1)c1nncn12 | 6.13 µM (active)
CCOC(=O)CC(NC(=O)CCS(=O)(=O)c1ccc2c(c1)n(C)c(=O)c(=O)n2C)c1ccc(C)cc1 (stereo unspecified) | > 150 µM (not active)
Cc1cc(C)c(COc2ccc(/C=N/n3c(C)nnc3S)cc2)c(C)c1 | 4.01 µM (active)
CC(=O)Nc1ccc(NC(=O)CSc2nnc(NC(=O)c3ccc(Br)o3)s2)cc1 | 8.52 µM (active)
COCCn1c(-c2cc(OC)c(OC)c(OC)c2)nc2oc3cc(OC)ccc3c(=O)c2c1=O | > 150 µM (not active)
Cc1cccc(C)c1NC(=O)CN(C)CC(=O)Nc1sc2c(c1C(N)=O)CCC2 | > 150 µM (not active)
Cc1nc2c(C(=O)NCc3ccc4c(c3)OCO4)cnn2c(C)c1Cc1ccc(F)cc1Cl | 9.62 µM (active)
c1ccc(-c2nnc(-c3c[nH]c4ccccc34)nc2-c2ccccc2)cc1 | 14.7 µM (active)
COc1ccc(C#Cc2ccc3c(=O)c4ccccc4n(C)c3c2)cc1 | 10.3 µM (active)
Cc1cc(C)cc(C(=O)NC2C(=O)N3C(C(=O)O)=C(CSc4nnc(C)s4)CSC23)c1 (stereo unspecified) | 0.512 µM (active)

Biological target: T2, Heat shock factor protein 1 (Mus musculus, UniProt P38532)
T2 sequence (P38532 whole entry): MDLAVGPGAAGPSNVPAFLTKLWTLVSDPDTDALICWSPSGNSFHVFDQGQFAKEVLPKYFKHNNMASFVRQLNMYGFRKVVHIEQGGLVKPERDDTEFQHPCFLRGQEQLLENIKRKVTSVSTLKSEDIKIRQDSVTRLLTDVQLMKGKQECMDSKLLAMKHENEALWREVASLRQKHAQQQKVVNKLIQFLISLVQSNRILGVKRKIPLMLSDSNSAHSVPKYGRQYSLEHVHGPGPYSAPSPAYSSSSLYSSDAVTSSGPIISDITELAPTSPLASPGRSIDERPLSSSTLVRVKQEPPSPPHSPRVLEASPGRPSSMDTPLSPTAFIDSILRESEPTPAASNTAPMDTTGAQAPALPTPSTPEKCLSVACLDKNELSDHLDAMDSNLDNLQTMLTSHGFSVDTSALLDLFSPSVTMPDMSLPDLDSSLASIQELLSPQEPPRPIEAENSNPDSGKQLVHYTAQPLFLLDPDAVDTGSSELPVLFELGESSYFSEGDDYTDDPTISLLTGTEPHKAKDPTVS
Assay: HSF1 potentiators in luciferase reporter cells, confirmation, cell-based, NIH3T3, luminescence, dose retest (AID 435004);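 also: stress induced by proteasome inhibitor MG132 added 30 min after compound; luciferase reporter driven by HSF1 response element in NIH3T3 cells; actives raise luminescence as potentiators of the MG132 stress response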
Assay type: functional

SMILES | EC50
COc1ccc(C(=O)NC(=S)N2CCCCC2c2cccnc2)cc1OC (stereo unspecified) | > 260 µM (inactive)

Tested on: not listed separately
Assay: cytotoxicity toward NIH3T3 fibroblasts, dose response, counter-screen, cell-based, ATP luminescence, mouse fibroblasts (AID 2010);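 also: cells exposed to compound for about 90 hours before reading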
Assay type: functional

SMILES | EC50
COc1ccc2[nH]c(CN3CCN(CCC(C)C)C(CCO)C3)c(C)c2c1 (stereo unspecified) | > 60 µM (not active)
COc1ccc(C(=O)NC(=S)N2CCCCC2c2cccnc2)cc1OC (stereo unspecified) | > 60 µM (not active)
CN(C)CCN(C(=O)c1ccc(S(=O)(=O)N(C)c2ccccc2)cc1)c1nc2cc3c(cc2s1)OCO3 | > 60 µM (not active)
COc1ccc(OC)c(N/C(C)=C/C(=O)c2ccccc2)c1 | > 60 µM (not active)
Cc1ccc(C(=O)NC(=S)N(C)C2CCCCC2)cc1Br | 8.13 µM (active)
Cc1ccc(C(=N)NOC(=O)N2CCOCC2)cc1 | > 60 µM (not active)
Cc1cc(Cl)ccc1OCc1nc(-c2ccncc2)no1 | > 60 µM (inconclusive)
Clc1ccc(C2=NCCN2)cc1 | > 60 µM (not active)
COc1ccc(-c2c[n+](-c3ccccc3)c3n2CCS3)cc1 | > 60 µM (not active)
